# Measurements reported in US20250351832A1, “PHYTOCHEMICALS AS BIOPESTICIDES AND BIOSTIMULANTS” (KAY BEE BIO ORGANICS PVT. LTD., priority 2024, published 2025).
# Like-named read-outs stand apart in the source and are kept apart here.
# How the values were obtained:
# chili seedlings = experiment: Response of chili plants, greenhouse growth (Ex. 31); type: in vivo
# Spodoptera litura [1] = experiment: whole plant or invertebrate; conditions: 72 h
# Alternaria alternata [2] = experiment: Alternaria leaf spot/blight on inoculated tomato plants (Ex. 28); type: in vivo; conditions: tomato plants, Alternaria alternata; after 7 days; dose 1 ml/gm/lit
# Alternaria alternata [3] = experiment: In vitro poisoned food technique against fungus (Ex. 20); type: cell-based; conditions: poisoned food technique, PDA medium, dose 1 ml/gm/lit., after seven days
# Aphid [4] = conditions: in vivo
# Mealy Bug [5] = conditions: in vivo
# Mealy Bug [6] = conditions: in vivo; remark: listed apart in the source
# Spodoptera litura [7] = conditions: in vivo
# Aphid [8] = experiment: whole plant or invertebrate; conditions: 48 h
# Thrips [9] = experiment: whole plant or invertebrate; conditions: in Gossypium hirsutum, 48 h
# [10] = cited from earlier work
# tomato seedlings = experiment: Response of tomato plants, greenhouse growth (Ex. 30); type: in vivo; conditions: tomato seedlings, dose 1 ml/gm/lit
# Spodoptera litura [11] = conditions: in vivo; remark: listed apart in the source
# Helicoverpa armigera = conditions: in vivo
# Thrips [12] = conditions: in vivo
# [13] = chili seedlings, dose 1 ml/gm/lit, 10th day
# [14] = read-out: % Corrected Mortality at 48 Hrs.
# [15] = read-out: % Mortality at 48 Hrs.
# [16] = Table 13, descriptive, no test described
smiles,measurement,setting,value
CC(C)c1ccc(C=O)cc1 [Cuminaldehyde],CCI Pre,chili seedlings,10.29
same,Plant Height (cm) Pre,chili seedlings,4.27 cm
same,CCI 5th Day,chili seedlings; 120 h,12.10
same,Plant Height (cm) 5th Day,chili seedlings; 120 h,5.77 cm
same,CCI 10th Day,chili seedlings; 240 h,13.9
same,Plant Height (cm) 10th Day,chili seedlings; 240 h,6.40 cm
same,Root Lenght % Increase over control,chili seedlings; 240 h,13.94%
same,CCI % Increase over pre on 10th Day,chili seedlings; [13],35.08%
same,Plant Height % Increase over pre on 10th Day,chili seedlings; [13],50.00%
same,Root Lenght (cm) 10th Day,chili seedlings; [13],3.12 cm
same,Stem Girth % Increase over pre on 10th Day,chili seedlings; [13],40.41%
same,mortality at 1 mL or g/L,Spodoptera litura [1]; read-out: % Corrected Mortality at 72 Hrs.,50%
same,mortality at 1 mL or g/L,Spodoptera litura [1]; read-out: % Mortality at 72 Hrs.,52.5%
same,% Disease reduction over Control,Alternaria alternata [2],52.89%
same,Mean colony Diameter (mm),Alternaria alternata [3],51.50 mm
same,inhibition of growth at 1 mL or g/L,"Alternaria alternata [3]; vs untreated control, read-out: % Inhibition of growth",41.5%
same,% Corrected Mortality at 48 Hrs.,Aphid [4],45.71%
same,% Mortality at 48 Hrs.,Aphid [4],52.50%
same,% Corrected Mortality at 48 Hrs.,Mealy Bug [5],50.00%
same,% Corrected Mortality at 48 Hrs.,Mealy Bug [6],50.00%
same,% Corrected Mortality at 72 Hrs.,Spodoptera litura [7],52.63%
same,% Mortality at 72 Hrs.,Spodoptera litura [7],55.00%
same,mortality at 1 mL or g/L,Aphid [8]; [14],47.1%
same,mortality at 1 mL or g/L,Aphid [8]; [15],55%
same,mortality at 1 mL or g/L,Thrips [9]; [14],34.3%
same,mortality at 1 mL or g/L,Thrips [9]; [15],42.5%
same,Antifungal Activity - Mode of action,[10]; [16],Mycelial growth inhibition
same,Antioxidant Activity - Mode of action,[10]; [16],Increase in reactive oxygen
same,Bactericidal Activity - Mode of action,[10]; [16],Great antimicrobial effects
same,Insecticidal Activities - Mode of action,[10]; [16],Acute Toxicity Effects
same,Nematicidal Activity - Mode of action,[10]; [16],Efficient hatching inhibitor
same,Phytotonic Effect,"[10]; Table 13, effect on plants, descriptive",Boost plant
same,Plant Height 5th Day,tomato seedlings; 5th day after application,6.62 cm
same,Stem Girth 5th Day,tomato seedlings; 5th day after application,1.77 mm
same,Plant Height 10th Day,tomato seedlings; 10th day after application,7.33 cm
same,Stem Girth 10th Day,tomato seedlings; 10th day after application,2.08 mm
same,Plant Height % Increase over pre on 10th Day,tomato seedlings; 10th day,31.36%
same,Stem Girth % Increase over pre on 10th Day,tomato seedlings; 10th day,64.12%
same,CCI 5th Day,tomato seedlings; 5th day after application,13.64
same,CCI % Increase over pre on 10th Day,tomato seedlings; 10th day,16.83%
same,Root Length (cm) 10th Day,tomato seedlings; 10th day,3.81 cm
same,CCI 10th Day,tomato seedlings; 10th day after application,14.65
same,Root Length % Increase over control,"tomato seedlings; 10th day, vs water control",14.59%
same,Total No. of dead insect at 72 Hrs.,Spodoptera litura [11],5.25
same,Total No. of dead insect at 72 Hrs.,Helicoverpa armigera,3.75
same,% Corrected Mortality at 48 Hrs.,Thrips [12],33.33%
same,% Mortality at 48 Hrs.,Thrips [12],40.00%
